Assays:
Assay type in all cases: functional
[1] = Antiproliferative activity against human NCI-ADR-RES cells assessed as concentration required for total cell growth inhibition after 48 hrs by SRB assay
MCF7 = experiment: Antiproliferative activity against human MCF7 cells assessed as concentration required for total cell growth inhibition after 48 hrs by SRB assay; details: MCF7, 48 h
U-251 = experiment: Antiproliferative activity against human U251 cells assessed as concentration required for total cell growth inhibition after 48 hrs by SRB assay; details: U-251, 48 h
UACC-62 = experiment: Antiproliferative activity against human UACC62 cells assessed as concentration required for total cell growth inhibition after 48 hrs by SRB assay; details: UACC-62, 48 h
HaCaT = experiment: Antiproliferative activity against human HaCaT cells assessed as concentration required for total cell growth inhibition after 48 hrs by SRB assay
HT-29 = experiment: Antiproliferative activity against human HT-29 cells assessed as concentration required for total cell growth inhibition after 48 hrs by SRB assay; details: HT-29, 48 h
K562 = experiment: Antiproliferative activity against human K562 cells assessed as concentration required for total cell growth inhibition after 48 hrs by SRB assay; details: K562, 48 h
PC-3 = experiment: Antiproliferative activity against human PC3 cells assessed as concentration required for total cell growth inhibition after 48 hrs by SRB assay; details: PC-3, 48 h
786-0 = experiment: Antiproliferative activity against human 786-0 cells assessed as concentration required for total cell growth inhibition after 48 hrs by SRB assay; details: 786-0, 48 h

Compound | TGI [1] [µM] | TGI (MCF7) [µM] | TGI (U-251) [µM] | TGI (UACC-62) [µM] | TGI (HaCaT) [µM] | TGI (HT-29) [µM] | TGI (K562) [µM] | TGI (PC-3) [µM] | TGI (786-0) [µM]
COc1cc(/C=C/C2(C)C=CC(=O)O2)cc(OC)c1O (stereo not given) | 51.6 | 45.3 | 40.7 | 24.6 | 64.4 | 19.1 | > 1000 | 131 | 108
CC1(/C=C/c2ccccc2)C=CC(=O)O1 (stereo not given) | 414 | 95.3 | 89.8 | 97.2 | 119 | 123 | > 1000 | 86.9 | 170
CC1(/C=C/c2ccccc2C(F)(F)F)C=CC(=O)O1 (stereo not given) | 12.2 | 13.5 | 14.1 | 17.7 | 12.7 | 15.8 | 573 | 17.9 | 27.9
CC1(/C=C/c2ccc(C(F)(F)F)cc2)C=CC(=O)O1 (stereo not given) | 9.4 | 20.4 | 15.7 | 15.5 | 12.1 | 12.3 | 652 | 13.1 | 34
CC1(/C=C/c2ccc(F)cc2)C=CC(=O)O1 (stereo not given) | 25.7 | 38.5 | 60.8 | 55.3 | 47.5 | 34.9 | > 1000 | 46.5 | 101
COc1ccc(/C=C/C2(C)C=CC(=O)O2)c(OC)c1 (stereo not given) | 151 | 43.5 | 62.8 | 80.1 | 53.6 | 57.5 | > 1000 | 63.5 | 108
COc1ccc(/C=C/C2(C)C=CC(=O)O2)cc1OC (stereo not given) | 111 | 78.9 | 192 | 84.1 | 838 | 927 | > 1000 | 176 | 22.9
COc1ccc(/C=C/C2(C)C=CC(=O)O2)c(OC)c1OC (stereo not given) | 349 | 110 | 87.2 | 71.5 | 217 | 133 | > 1000 | 90 | 132
COc1cc(OC)c(OC)cc1/C=C/C1(C)C=CC(=O)O1 (stereo not given) | 158 | 144 | 160 | 127 | 180 | 127 | > 1000 | 184 | 205
COc1cc(/C=C/C2(C)C=CC(=O)O2)cc(OC)c1OC (stereo not given) | 123 | 56.6 | 125 | 178 | 175 | 390 | > 1000 | 131 | 116
COc1cc(OC)c(/C=C/C2(C)C=CC(=O)O2)c(OC)c1 (stereo not given) | 229 | 102 | 193 | 208 | 458 | 127 | > 1000 | 239 | 459
CC1(/C=C/c2ccccc2O)C=CC(=O)O1 (stereo not given) | 78 | 46.2 | 70.9 | 92.5 | 57.3 | 31.3 | > 1000 | 112 | 136
CC1(/C=C/c2cccc(O)c2)C=CC(=O)O1 (stereo not given) | 647 | 124 | 118 | 108 | 88.1 | 97.4 | > 1000 | 98.8 | 196
CC1(/C=C/c2ccc(O)cc2)C=CC(=O)O1 (stereo not given) | 111 | 69.1 | 107 | 55.3 | 81.2 | 122 | > 1000 | 138 | 143
COc1ccccc1/C=C/C1(C)C=CC(=O)O1 (stereo not given) | 64.5 | 27 | 41.1 | 31 | 30.8 | 30.8 | 860 | 34.2 | 35.4
COc1cccc(/C=C/C2(C)C=CC(=O)O2)c1 (stereo not given) | 48.6 | 25.3 | 37.6 | 55.8 | 5.7 | 17 | > 1000 | 31.6 | 70
COc1ccc(/C=C/C2(C)C=CC(=O)O2)cc1 (stereo not given) | > 1000 | 183 | 127 | 147 | 316 | 92.9 | > 1000 | 145 | > 1000
C[C@]1(/C=C/c2ccccc2)CC=CC(=O)O1 | 107 | 48 | 27.5 | 37.2 | 50.7 | 41.1 | > 1000 | 31.7 | 68.7
COc1cccc2c1C(=O)c1c(O)c3c(c(O)c1C2=O)C[C@@](O)(C(=O)CO)C[C@@H]3O[C@H]1C[C@H](N)[C@H](O)[C@H](C)O1 [DOXORUBICIN] | 10.3 | 4.9 | 2.1 | 0.2 | 0.4 | 3.6 | 45.5 | 2.5 | 1
O=C1C=CC[C@H](/C=C/c2ccccc2)O1 [GONIOTHALAMIN] | 14.5 | 11.2 | 9.8 | 17.4 | 13.4 | 10 | 927 | 9.6 | 13.9
